From patent US20240400515A1, “NPM1-DEPENDING LEUKEMIA AGENTS” (UNIVERSIDAD COMPLUTENSE DE MADRID, priority 2021, published 2024)

How the values were obtained:
[1] = tested on: MOLM13 (NPM1 C−); assay: Viability assay (WST-1) in MOLM13 cell line; assay type: cell-based; conditions: Homo sapiens, MOLM-13, viability percentage relative to vehicle, 24 h
Description: (§1) Two different acute myeloid leukemia cell lines, OCI-AML3 (NPM1 C+) and MOLM13 (NPM1 C−) were obtained from the DSMZ cell repository (Braunschweig, Germany). Cell lines were expanded and cryogenically frozen upon acquisition to establish stocks in liquid nitrogen until use. Cultured cells were maintained at 37° C. in a humidified incubator in an atmosphere of 5% CO2 and passaged every 2-3 days. RPMI media (Gibco/Life Technologies; Grand Island, NY) supplemented with 10% fetal bovine serum (FBS) (Hyclone) and 1% penicillin/streptomycin was used.
(§2) The sensitivity of the compounds on OCI-AML3 (NPM1 C+) and MOLM13 (NPM1 C−) cell viability was assessed as an in-vitro acute myeloid leukemia (AML) model. Briefly, cells were seeded at a density of 2×10^4 cells/100 μL/well in 96-well plates. Cell lines were treated for 24 h with the test compound diluted in DMSO at the concentration of 5 μM or vehicle (DMSO). Then, 10 μL of WST-1 solution ((2-(4-iodophenyl)-3-(4-nitrophenyl)-5-(2,4-disulfophenyl)-2H-tetrazolium monosodium salt, Merck) were added and the cells were incubated for 4 h at 37° C. The absorbance was measured at 450 nm using an Asys UVM 340 microplate reader (Biochrom Ltd., Cambridge, UK). The background absorbance of blank wells containing only medium was subtracted from each test well. The data were reported as viability percentage relative to vehicle, obtained from two or three independent experiments performed in triplicate (Table 1).

[2] = tested on: OCI-AML3 (NPM1 C+); assay: Viability assay (WST-1) in OCI-AML3 cell line; assay type: cell-based; conditions: Homo sapiens, OCI-AML-3, viability percentage relative to vehicle, 24 h
Description: as §1, §2

SMILES | viability at 5 µM [1] | viability at 5 µM [2]
Cc1ccc([C@H]2Cc3[nH]c4ccccc4c3[C@@H](CCNC3CC3)[C@@H]2N)cc1 [Iaa, (2R,3R,4R)-4-[2-(Cyclopropylamino)ethyl]-2-(4-methylphenyl)-2,3,4,9-tetrahydro-1H-carbazol-3-amine] | 2 ± 2% | 1 ± 1%
Cc1ccc([C@H]2Cc3[nH]c4ccc(Cl)cc4c3[C@@H](CCNCC3CC(F)(F)C3)[C@@H]2N)cc1 [Iab, (2R,3R,4R)-6-Chloro-4-(2-{[(3,3-difluorocyclobutyl)methyl]amino}ethyl)-2-(4-methylphenyl)-2,3,4,9-tetrahydro-1H-carbazol-3-amine] | 14 ± 8% | 17 ± 4%
CN[C@@H]1[C@@H](c2ccc(C)cc2)Cc2[nH]c3ccc(Cl)cc3c2[C@H]1CCNCC1CC(F)(F)C1 [Iac, (2R,3R,4R)-6-Chloro-4-(2-{[(3,3-difluorocyclobutyl)methyl]amino}ethyl)-N-methyl-2-(4-methylphenyl)-2,3,4,9-tetrahydro-1H-carbazol-3-amine] | 5 ± 1% | 6%
COc1ccc2[nH]c3c(c2c1)[C@@H](CCNCC1CC1)[C@H](N)[C@@H](c1ccc(C)cc1)C3 [Iaf, (2R,3R,4R)-4-{2-[(Cyclopropylmethyl)amino]ethyl}-6-methoxy-2-(4-methylphenyl)-2,3,4,9-tetrahydro-1H-carbazol-3-amine] | 60 ± 2% | 39 ± 6%
Cc1ccc([C@H]2Cc3[nH]c4ccc(Cl)cc4c3[C@@H](CCNCC3CC3)[C@@H]2N)cc1 [Iag, (2R,3R,4R)-6-Chloro-4-{2-[(cyclopropylmethyl)amino]ethyl}-2-(4-methylphenyl)-2,3,4,9-tetrahydro-1H-carbazol-3-amine] | 10 ± 6% | 9 ± 5%
COc1ccc([C@H]2Cc3[nH]c4ccc(Cl)cc4c3[C@@H](CCNCC3CC3)[C@@H]2N)cc1 [Iah, (2R,3R,4R)-6-Chloro-4-{2-[(cyclopropylmethyl)amino]ethyl}-2-(4-methoxyphenyl)-2,3,4,9-tetrahydro-1H-carbazol-3-amine] | 16 ± 2% | 26 ± 12%
Cc1ccc([C@H]2Cc3[nH]c4ccc(C)cc4c3[C@@H](CCNCC3CC3)[C@@H]2N)cc1 [Iai, (2R,3R,4R)-4-{2-[(Cyclopropylmethyl)amino]ethyl}-6-methyl-2-(4-methylphenyl)-2,3,4,9-tetrahydro-1H-carbazol-3-amine] | 6 ± 2% | 12 ± 2%
Cc1ccc([C@H]2Cc3[nH]c4ccc(F)cc4c3[C@@H](CCNCC3CC3)[C@@H]2N)cc1 [Iaj, (2R,3R,4R)-4-{2-[(Cyclopropylmethyl)amino]ethyl}-6-fluoro-2-(4-methylphenyl)-2,3,4,9-tetrahydro-1H-carbazol-3-amine] | 4 ± 1% | 7 ± 1%
CN[C@@H]1[C@@H](c2ccc(C)cc2)Cc2[nH]c3ccc(Cl)cc3c2[C@H]1CCNCC1CC1 [Iak, (2R,3R,4R)-6-Chloro-4-{2-[(cyclopropylmethyl)amino]ethyl}-N-methyl-2-(4-methylphenyl)-2,3,4,9-tetrahydro-1H-carbazol-3-amine] | 7 ± 2% | 1 ± 1%
Cc1ccc([C@H]2Cc3c(c4ccccc4n3C)[C@@H](CCNCC3CC3)[C@@H]2N)cc1 [Ial, (2R,3R,4R)-4-{2-[(Cyclopropylmethyl)amino]ethyl}-9-methyl-2-(4-methylphenyl)-2,3,4,9-tetrahydro-1H-carbazol-3-amine] | 17% | 22 ± 2%
Cc1ccc([C@H]2Cc3[nH]c4ccccc4c3[C@@H](CCNCC3CC3)[C@@H]2N)cc1 [Ib, (2R,3R,4R)-4-{2-[(Cyclopropylmethyl)amino]ethyl}-2-(4-methylphenyl)-2,3,4,9-tetrahydro-1H-carbazol-3-amine] | 20 ± 5% | 16%
COc1ccc([C@@H]2Cc3[nH]c4ccccc4c3[C@H](CCNCC3CC3)[C@H]2N)cc1 [Id, (2S,3S,4S)-4-{2-[(Cyclopropylmethyl)amino]ethyl}-2-(4-methoxyphenyl)-2,3,4,9-tetrahydro-1H-carbazol-3-amine] | 40% | 33 ± 5%
